Experimental data taken from BindingDB's records for doi:10.1021/jm00107a050 (Merck Research Laboratories, 1991).

Target: T1, Dimer of Gag-Pol polyprotein [489-587] (Human immunodeficiency virus 1, UniProt P12497)
T1 construct: 489-587
Assay: Protease Inhibition Assay
Conditions: pH 5.5; 30 °C
Protocol: Sensitivity of HIV-1 protease activity to protease inhibitors was determined by a peptide substrate cleavage assay. Protease products were analyzed on a reverse-phase high-pressure liquid chromatograph.

In the case of CCC(C)C(NC(=O)[C@H](C/C=C/c1ccccc1)C[C@H](O)[C@H](Cc1ccccc1)NC(=O)OC(C)(C)C)C(=O)NCc1nc2ccccc2[nH]1 (stereo partly drawn) [tert-butyl N-[(2S,3S,5R)-5-({1-[(1H-1,3-benzodiazol-2-ylmethyl)carbamoyl]-2-methylbutyl}carbamoyl)-3-hydroxy-1-phenyl-5-[(2E)-3-phenylprop-2-en-1-yl]pentan-2-yl]carbamate], the IC50 is reported as 0.03 nM.
Compound CCC(C)C(NC(=O)[C@H](Cc1ccccc1)C[C@H](O)[C@H](Cc1ccccc1)NC(=O)OC(C)(C)C)C(=O)NCc1nc2ccccc2[nH]1 (stereo partly drawn) [tert-butyl N-[(2S,3S,5R)-5-({1-[(1H-1,3-benzodiazol-2-ylmethyl)carbamoyl]-2-methylbutyl}carbamoyl)-5-benzyl-3-hydroxy-1-phenylpentan-2-yl]carbamate] has an IC50 of 0.07 nM.
